Test [1] has as its system SMMC-7721. In words: Cytotoxicity against Homo sapiens (human) SMMC7721 cells after 48 hr by MTT reduction assay. Conditions: SMMC-7721, 48 h. Type of test: functional, cell-based. On the technique in general: Formazan colour is commonly taken as a measure of viable cells.
In test [2] the test system is HepG2. In words: Cytotoxicity against Homo sapiens (human) HepG2 cells after 48 hr by MTT reduction assay. The following applies: HepG2, 48 h. Type of test: functional, cell-based.
The target in test [3] is Cyclin-dependent kinase 1/cyclin B1 (Homo sapiens, UniProt P06493). In words: Inhibition of CDK1/Cyclin B (unknown origin) by Z-LYTE assay. It is filed as protein-complex assay.
Chain of Cyclin-dependent kinase 1/cyclin B1 (P06493 whole entry): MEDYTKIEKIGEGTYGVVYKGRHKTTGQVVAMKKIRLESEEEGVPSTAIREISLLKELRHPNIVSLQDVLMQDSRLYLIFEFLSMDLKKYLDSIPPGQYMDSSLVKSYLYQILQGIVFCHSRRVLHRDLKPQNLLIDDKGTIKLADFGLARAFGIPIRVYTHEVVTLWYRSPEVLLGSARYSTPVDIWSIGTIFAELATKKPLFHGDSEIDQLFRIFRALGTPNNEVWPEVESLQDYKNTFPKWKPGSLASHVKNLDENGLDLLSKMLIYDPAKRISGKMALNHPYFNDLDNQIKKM
Chain of Cyclin-dependent kinase 1/cyclin B1 (P14635 whole entry, further chain): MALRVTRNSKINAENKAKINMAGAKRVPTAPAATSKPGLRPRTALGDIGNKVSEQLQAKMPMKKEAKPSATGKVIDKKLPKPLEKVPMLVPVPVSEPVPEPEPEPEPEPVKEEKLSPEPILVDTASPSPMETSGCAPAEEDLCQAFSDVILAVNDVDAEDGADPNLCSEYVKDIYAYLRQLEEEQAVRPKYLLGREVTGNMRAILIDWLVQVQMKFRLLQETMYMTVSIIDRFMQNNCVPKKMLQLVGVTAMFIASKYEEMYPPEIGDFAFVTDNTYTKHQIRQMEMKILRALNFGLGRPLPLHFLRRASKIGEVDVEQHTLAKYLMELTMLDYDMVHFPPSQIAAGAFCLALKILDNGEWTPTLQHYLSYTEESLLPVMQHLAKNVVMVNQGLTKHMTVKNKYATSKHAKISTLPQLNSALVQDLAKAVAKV

Molecules are shown by their SMILES.

For orientation: IC50 means the point on the concentration scale where inhibition reaches its midpoint. Lower therefore signals inhibition by little substance. For the compound `CN(C)Cc1cc(Cl)cc2c(=O)cc(-c3ccccc3Cl)oc12`, the IC50 amounted to 1.14 µM in test [1] and 1.87 µM in test [2].

On to `Cc1ccc2c(=O)cc(-c3ccc(Cl)cc3)oc2c1`, for which the half-inhibitory concentration (IC50) in test [2] amounted to 6.83 µM.

For `O=c1cc(-c2ccc(Cl)cc2)oc2ccc(CN3CCCCC3)cc12`, the IC50 stood at 16.2 µM in test [1] and 14 µM in test [2].

Consider `Nc1ccc(-c2cc(=O)c3cc(CN4CCCCC4)ccc3o2)cc1`, for which the figures for the IC50 in test [1] and in test [2] were 3.68 µM and 2.64 µM, respectively.

With `CN1CCN(Cc2ccc3oc(-c4ccc([N+](=O)[O-])cc4)cc(=O)c3c2)CC1`, in test [1], the half-maximal inhibitory concentration (IC50) came out at 19 µM.

For `O=c1cc(-c2ccc(Cl)cc2)oc2ccc(CN3CCNCC3)cc12`, the values for the IC50 in test [1] and in test [2] were 1.51 µM and 2.69 µM, respectively.

`Cc1ccc2c(=O)cc(-c3ccc(N)cc3)oc2c1` yielded an IC50 in test [2] of 40.5 µM.

In the case of `CC[N+](CC)(CC)Cc1ccc2oc(-c3ccccc3Cl)cc(=O)c2c1`, it took 61 µM to reach half-maximal inhibition in test [2] (IC50). Against the preceding compound, the IC50 is about 1.5-fold higher.

`Cc1ccc2c(=O)cc(-c3ccccc3Cl)oc2c1` returned an IC50 in test [2] of 28.3 µM. Against the preceding compound, the IC50 is about 2.2-fold lower.

Regarding `CCN(CC)Cc1cccc2c(=O)cc(-c3ccc([N+](=O)[O-])cc3)oc12`, the IC50 in test [3] worked out at 2.21 µM; in test [2], 28.8 µM.

In test [2], `CCN(CC)Cc1ccc2c(=O)cc(-c3ccccc3Cl)oc2c1` had a 50% inhibitory concentration (IC50) of 10.7 µM.

In the case of `Cc1cc(Cl)cc2c(=O)cc(-c3ccc(N)cc3)oc12`, the IC50 in test [2] is 11.9 µM. This IC50 and that of the compound before are within 1.5-fold of each other.

In the case of `Cc1ccc2oc(-c3ccccc3Cl)cc(=O)c2c1`, the IC50 was found to be 15.1 µM in test [1] and 6.23 µM in test [2].

`O=c1cc(-c2ccc([N+](=O)[O-])cc2)oc2c(Cn3ccnc3)cc(Cl)cc12`: the IC50 in test [3] was determined as 2.14 µM; in test [1] it was 1.2 µM; in test [2], 2.94 µM.

In the case of `O=c1cc(-c2ccccc2Cl)oc2c(CN3CCCCC3)cc(Cl)cc12`, the IC50 in test [1] is 3.4 µM; in test [2] it was 10.7 µM.

Take `CN1CCN(Cc2cccc3c(=O)cc(-c4ccc([N+](=O)[O-])cc4)oc23)CC1`: the values for the IC50 in test [3], in test [1] and in test [2] were 8.13 µM, 1.19 µM and 2.94 µM, respectively.

Take `CN1CCN(Cc2cc(Cl)cc3c(=O)cc(-c4ccc([N+](=O)[O-])cc4)oc23)CC1`: the IC50 in test [3] stood at 6.22 µM; in test [1], 5.21 µM; in test [2] it was 1.76 µM.

In the case of `O=c1cc(-c2ccc(Cl)cc2)oc2c(CN3CCOCC3)cc(Cl)cc12`, the IC50 stood at 2.17 µM in test [3], 15.3 µM in test [1] and 6.33 µM in test [2].

Regarding `O=c1cc(-c2ccccc2Cl)oc2c(CN3CCNCC3)cc(Cl)cc12`, the values for the IC50 in test [1] and in test [2] were 2.69 µM and 18.7 µM, respectively.

In the case of `CN1CCN(Cc2ccc3c(=O)cc(-c4ccccc4Cl)oc3c2)CC1`, the half-inhibitory concentration (IC50) in test [1] is 12.9 µM; in test [2] it was 14.2 µM.

On to `CN(C)Cc1ccc2c(=O)cc(-c3ccccc3Cl)oc2c1`, for which the concentration for half-maximal inhibition (IC50) in test [1] was determined as 28.2 µM. That is a double-digit micromolar value.

For the compound `O=c1cc(-c2ccc([N+](=O)[O-])cc2)oc2cc(CN3CCNCC3)ccc12`, the results for the IC50 in test [1] and in test [2] were 2.03 µM and 4.53 µM, respectively.

For the compound `CN(C)Cc1cc(Cl)cc2c(=O)cc(-c3ccc([N+](=O)[O-])cc3)oc12`, the values for the IC50 in test [1] and in test [2] were 56.5 µM and 6.19 µM, respectively.

In turn, `CN1CCN(Cc2ccc3c(=O)cc(-c4ccc([N+](=O)[O-])cc4)oc3c2)CC1` came in with a half-maximal inhibitory concentration (IC50) in test [1] of 10.7 µM.

As for `Cc1ccc2oc(-c3ccc(N)cc3)cc(=O)c2c1`, in test [2], the IC50 stood at 21.3 µM. In other words, the double-digit micromolar range.

As to `O=c1cc(-c2ccccc2Cl)oc2cc(CN3CCNCC3)ccc12`, the half-maximal inhibitory concentration (IC50) in test [1] was 1.91 µM; in test [2], 2.58 µM.

In the case of `O=c1cc(-c2ccc([N+](=O)[O-])cc2)oc2c(CN3CCCCC3)cc(Cl)cc12`, the IC50 in test [1] was determined as 1.09 µM; in test [2], 8.91 µM.

With `O=c1cc(-c2ccccc2Cl)oc2c(CN3CCOCC3)cc(Cl)cc12`, the IC50 in test [1] worked out at 13.2 µM; in test [2], 6.81 µM.

For `CCN(CC)Cc1cc(Cl)cc2c(=O)cc(-c3ccc([N+](=O)[O-])cc3)oc12`, the half-maximal inhibitory concentration (IC50) in test [1] amounted to 2.99 µM; in test [2] it was 1.19 µM.

Take `CCN(CC)Cc1cc(Cl)cc2c(=O)cc(-c3ccccc3Cl)oc12`: the values for the IC50 in test [3], in test [1] and in test [2] were 2.06 µM, 0.81 µM and 7.94 µM, respectively.

As to `CN1CCN(Cc2cc(Cl)cc3c(=O)cc(-c4ccccc4Cl)oc23)CC1`, the midpoint of inhibition in test [1], the IC50, lay at 3.1 µM.

As to `O=c1cc(-c2ccccc2Cl)oc2c(Cn3ccnc3)cc(Cl)cc12`, the IC50 in test [1] was 1.07 µM; in test [2], 3.27 µM.

Take `O=c1cc(-c2ccc([N+](=O)[O-])cc2)oc2c(CN3CCNCC3)cc(Cl)cc12`: the half-maximal inhibitory concentration (IC50) in test [3] is 4.84 µM; in test [1], 1.1 µM; in test [2] it was 0.243 µM.

Regarding `O=c1cc(-c2ccccc2Cl)oc2cc(CN3CCCCC3)ccc12`, in test [2], the midpoint of inhibition, the IC50, lay at 3.64 µM.

The values above are taken from ChEMBL document CHEMBL3045246, “Investigation on the substitution effects of the flavonoids as potent anticancer agents: a structureactivity relationships study” (Med Chem Res, 2012).
